Laboratory results: patent US8940768B2, “Antifungal triazole derivatives” (Daewoong Pharmaceutical Co., Ltd., priority 2010, dated 2015)
Values after ≈ are worked out from the molar mass of the structure shown.

Columns and labels:
Format in all cases: cell-based
[1] = tested on: Trichophyton rubrum; experiment: in vitro antifungal activity (MIC80), Trichophyton rubrum; details: 120 h, 80% growth inhibition vs negative control, RPMI 1640, read five days after application
Description: (§1) The compounds of the present invention were evaluated for inhibitory activity against yeast molds including Candida albicans, Candida glabrata, Candida krusei, Candida tropicalis, Candida parapsilosis, and Cryptococcus neoformans, and filamentous fungi including Aspergillus fumigatus, Trichophyton mentagrophytes (obtained from KCTC (Korean Collection for Type Cultures), and Trichophyton rubrum (obtained from KCCM (Korean Culture Center of Microorganisms). All the strains, but Trichophyton mentagrophytes and Trichophyton rubrum, were purchased from the ATCC (American Type Culture Collection).
(§2) Of the strains used in this test, Candida albicans, Candida glabrata, Candida krusei, Candida tropicalis, Candida parapsilosis, Trichophyton mentagrophytes and Trichophyton rubrum were inoculated into sabouraud dextrose agars (Difco, BD-0109), Cryptococcus neoformans into a yeast mold agar (YM agar, Difco, 271210), and Aspergillus fumigatus into a malt extract agar (Difco, 211220), before incubation at 35° C. for two to ten days.
(§3) From the agars on which the yeast molds were grown, single colonies were picked up, and each was sufficiently suspended in 5 mL of already prepared, 0.85% sterile saline. After correction of the absorbance to 0.108 at 530 nm, each of the suspensions was diluted to a ratio of 1:50 in an RPMI (Roswell park memorial institute) 1640 medium and then to a ratio of 1:20 to prepare an inoculum having a cell density of from 1.0×10^3 to 5.0×10^3CFU/mL. The cell density was adjusted into […]˜5.0×10^4 CFU/mL for Aspergillus fumigates and 0.4×10^4˜5.0×10^4 CFU/mL for both Trichophyton mentagrophytes and Trichophyton rubrum.
(§4) The antifungal agent samples were prepared by diluting the active compounds in an RPMI 1640 medium to a serial density of from 0.0156 to 32 μg/mL. In this context, dimethylsulfoxide (DMSO) was used as an excipient at a final concentration of 1% (v/v). The serial dilutions were aliquoted at a volume of 0.1 mL and applied to 0.1 mL of the aliquots of each inoculum, followed by incubation.
(§5) With the naked eyes, an observation was made of all of the yeast molds, but Cryptococcus neoformans 24 hrs after the application, Cryptococcus neoformans and Aspergillus fumigatus 48 hrs after the application, and Trichophyton mentagrophytes and Trichophyton rubrum five days after the application to examine whether the fungi grew or not. In addition, Alamarblue™ as used to determine the concentrations of the compounds of the present invention at which the growth of the microorganisms was 80% inhibited compared to that of the negative control. All experiments were performed in duplicate for each of the test concentration groups.

[2] = tested on: Aspergillus fumigatus; experiment: in vitro antifungal activity (MIC80), Aspergillus fumigatus; details: 80% growth inhibition vs negative control, RPMI 1640, read 48 hrs after application
Description: as §1, §2, §3, §4, §5

[3] = tested on: Candida krusei; experiment: in vitro antifungal activity (MIC80), Candida krusei; details: Pichia kudriavzevii; 80% growth inhibition vs negative control; RPMI 1640; read 24 hrs after application; read-out: Antifungal Activity (MIC80) C. krusei
Description: as §1, §2, §3, §4, §5

[4] = tested on: Candida parapsilosis; experiment: in vitro antifungal activity (MIC80), Candida parapsilosis; details: Lodderomyces parapsilosis; 80% growth inhibition vs negative control; RPMI 1640; read 24 hrs after application; read-out: Antifungal Activity (MIC80) C. parapsilosis
Description: as §1, §2, §3, §4, §5

[5] = tested on: Candida tropicalis; experiment: in vitro antifungal activity (MIC80), Candida tropicalis; details: 80% growth inhibition vs negative control, RPMI 1640, read 24 hrs after application, read-out: Antifungal Activity (MIC80) C. tropicalis
Description: as §1, §2, §3, §4, §5

[6] = tested on: Cryptococcus neoformans; experiment: in vitro antifungal activity (MIC80), Cryptococcus neoformans; details: 80% growth inhibition vs negative control, RPMI 1640, read 48 hrs after application
Description: as §1, §2, §3, §4, §5

[7] = tested on: Candida glabrata; experiment: in vitro antifungal activity (MIC80), Candida glabrata; details: Nakaseomyces glabratus, 24 h, read-out: Antifungal Activity (MIC80) C. grabrata
Description: as §1, §2, §3, §4, §5

[8] = tested on: Trichophyton mentagrophytes; experiment: in vitro antifungal activity (MIC80), Trichophyton mentagrophytes; details: 120 h, 80% growth inhibition vs negative control, RPMI 1640, read five days after application
Description: as §1, §2, §3, §4, §5

[9] = tested on: Candida albicans; experiment: in vitro antifungal activity (MIC80), Candida albicans; details: 80% growth inhibition vs negative control, RPMI 1640, read 24 hrs after application, Table 1, read-out: Antifungal Activity (MIC80) C. albicans
Description: as §1, §2, §3, §4, §5

Structure (SMILES) | MIC80 [1] | MIC80 [2] | MIC80 [3] | MIC80 [4] | MIC80 [5] | MIC80 [6] | MIC80 [7] | MIC80 [8] | MIC80 [9]
C[C@@H](NC1CCN(c2ccc(Cl)cc2)CC1)[C@](O)(Cn1cncn1)c1ccc(F)cc1F [Example 128, (2R,3R)-3-((1-(4-chlorophenyl)piperidin-4-yl)amino)-2-(2,4-difluorophenyl)-1-(1H-1,2,4-triazol-1-yl)butan-2-ol] | ≤ 0.125 µg/mL | 0.25 µg/mL (≈ 0.541 µM) | ≤ 0.015 µg/mL | 0.031 µg/mL (≈ 0.0671 µM) | 0.031 µg/mL (≈ 0.0671 µM) | ≤ 0.015 µg/mL | 0.062 µg/mL (≈ 0.134 µM) | 0.015 µg/mL (≈ 0.0325 µM) | ≤ 0.015 µg/mL
C[C@@H](N1CCC(Nc2ccc(Cl)cc2)CC1)[C@](O)(Cn1cncn1)c1ccc(F)cc1F [Example 34, (2R,3R)-3-(4-((4-chlorophenyl)amino)piperidin-1-yl)-2-(2,4-difluorophenyl)-1-(1H-1,2,4-triazol-1-yl)butan-2-ol] | ≤ 0.125 µg/mL | ≤ 0.125 µg/mL | 0.031 µg/mL (≈ 0.0671 µM) | ≤ 0.015 µg/mL | ≤ 0.015 µg/mL | ≤ 0.015 µg/mL | 0.125 µg/mL (≈ 0.271 µM) | ≤ 0.125 µg/mL | ≤ 0.015 µg/mL
C[C@@H](NC1CCN(c2ncc(Br)cn2)CC1)[C@](O)(Cn1cncn1)c1ccc(F)cc1F [Example 153, (2R,3R)-3-((1-(5-bromopyrimidin-2-yl)piperidin-4-yl)amino)-2-(2,4-difluorophenyl)-1-(1H-1,2,4-triazol-1-yl)butan-2-ol] | ≤ 0.125 µg/mL | 1 µg/mL (≈ 1.97 µM) | 0.125 µg/mL (≈ 0.246 µM) | ≤ 0.015 µg/mL | 0.25 µg/mL (≈ 0.492 µM) | ≤ 0.015 µg/mL | 0.125 µg/mL (≈ 0.246 µM) | 0.5 µg/mL (≈ 0.984 µM) | ≤ 0.015 µg/mL
OC(Cn1cncn1)(Cn1cncn1)c1ccc(F)cc1F [Fluconazole, reference compound] | 4 µg/mL (≈ 13.1 µM) | > 128 µg/mL | 4 µg/mL (≈ 13.1 µM) | > 32 µg/mL | > 32 µg/mL | 0.5 µg/mL (≈ 1.63 µM) | > 32 µg/mL | 16 µg/mL (≈ 52.2 µM) | 4 µg/mL (≈ 13.1 µM)
C[C@@H](c1ncncc1F)[C@](O)(Cn1cncn1)c1ccc(F)cc1F [Voriconazole, reference compound] | ≤ 0.125 µg/mL | 0.25 µg/mL (≈ 0.716 µM) | 0.5 µg/mL (≈ 1.43 µM) | 0.5 µg/mL (≈ 1.43 µM) | 0.25 µg/mL (≈ 0.716 µM) | 0.25 µg/mL (≈ 0.716 µM) | 2 µg/mL (≈ 5.73 µM) | 0.125 µg/mL (≈ 0.358 µM) | 0.031 µg/mL (≈ 0.0887 µM)
C[C@@H](NC1CCN(c2ccc(F)cc2)CC1)[C@](O)(Cn1cncn1)c1ccc(F)cc1F [Example 125, (2R,3R)-2-(2,4-difluorophenyl)-3-((1-(4-fluorophenyl)piperidin-4-yl)amino)-1-(1H-1,2,4-triazol-1-yl)butan-2-ol] | ≤ 0.125 µg/mL | 0.25 µg/mL (≈ 0.561 µM) | 0.062 µg/mL (≈ 0.139 µM) | ≤ 0.015 µg/mL | 0.031 µg/mL (≈ 0.0696 µM) | ≤ 0.015 µg/mL | 0.125 µg/mL (≈ 0.281 µM) | ≤ 0.125 µg/mL | ≤ 0.015 µg/mL
C[C@@H](N1CCC(Oc2ccc(F)cc2)CC1)[C@](O)(Cn1cncn1)c1ccc(F)cc1F [Example 1, (2R,3R)-2-(2,4-difluorophenyl)-3-(4-(4-fluorophenoxy)piperidin-1-yl)-1-(1H-1,2,4-triazol-1-yl)butan-2-ol] | ≤ 0.125 µg/mL | ≤ 0.125 µg/mL | 0.062 µg/mL (≈ 0.139 µM) | ≤ 0.015 µg/mL | 0.062 µg/mL (≈ 0.139 µM) | ≤ 0.015 µg/mL | 0.25 µg/mL (≈ 0.56 µM) | ≤ 0.125 µg/mL | ≤ 0.015 µg/mL
C[C@@H](N1CCC(Oc2ncc(Br)cn2)CC1)[C@](O)(Cn1cncn1)c1ccc(F)cc1F [Example 32, (2R,3R)-3-(4-((5-bromopyrimidin-2-yl)oxy)piperidin-1-yl)-2-(2,4-difluorophenyl)-1-(1H-1,2,4-triazol-1-yl)butan-2-ol] | 0.031 µg/mL (≈ 0.0609 µM) | ≤ 0.125 µg/mL | 0.125 µg/mL (≈ 0.245 µM) | ≤ 0.015 µg/mL | ≤ 0.015 µg/mL | ≤ 0.015 µg/mL | 0.125 µg/mL (≈ 0.245 µM) | ≤ 0.125 µg/mL | ≤ 0.015 µg/mL
